Drawing on patent publication US20240109918A1, “HETEROCYCLIC COMPOUNDS AND USES THEREOF” (Kumquat Biosciences Inc., priority 2022, published 2024), this text covers IC50 for 16 molecules.

Experiment [1] concerns the target T1, KRASG12D (Homo sapiens, UniProt P01116, G12D).
T1 construct: made in house; host or cells: E. coli BL21 (DE3)
The experiment can be described thus: Bio-Biochem-PPI-HTRF Ras-SOS1 interaction assay (KRAS G12D). Particulars: 5 nM. It is filed as biochemical. In outline: (§1)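 GST-tagged K-Ras (wt or G12D) with anti-GST-Eu(K) donor was mixed with His-hSOS1 and anti-6His-XL665 acceptor in HEPES pH 7.4/NaCl/DTT/BSA/Igepal buffer, with compound in duplicate from 10 μM down to 0.01 μM. After about 10 min or longer, HTRF 665/620 nm ratio gave IC50.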
Background: Time-resolved FRET reads energy transfer from a long-lived donor to a nearby acceptor.

The target in experiment [2] is T2, KRASwt (Homo sapiens, UniProt P01116).
T2 construct: made in house; host or cells: E. coli BL21 (DE3)
Briefly: Bio-Biochem-PPI-HTRF Ras-SOS1 interaction assay (KRAS wt). Format: biochemical. The following applies: 5 nM. The gist of the method: as §1

The pIC50 is −log10 of the IC50, conventionally taken in molar units. A higher pIC50 goes with a low IC50.

pIC50: −log10 of the molar value.

T1 sequence (P01116 1-188 isoform P01116-2 G12D): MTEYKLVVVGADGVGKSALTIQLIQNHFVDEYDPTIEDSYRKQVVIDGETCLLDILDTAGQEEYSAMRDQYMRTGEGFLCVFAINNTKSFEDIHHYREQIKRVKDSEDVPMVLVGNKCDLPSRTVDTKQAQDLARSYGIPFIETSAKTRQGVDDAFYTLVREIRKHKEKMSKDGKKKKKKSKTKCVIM
T2 sequence (P01116 1-188 isoform P01116-2): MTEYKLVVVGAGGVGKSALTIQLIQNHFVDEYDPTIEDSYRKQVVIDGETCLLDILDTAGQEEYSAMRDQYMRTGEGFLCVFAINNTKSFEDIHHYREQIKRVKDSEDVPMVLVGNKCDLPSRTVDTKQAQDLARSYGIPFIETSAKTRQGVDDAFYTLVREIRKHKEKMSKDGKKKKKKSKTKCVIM

For the molecule `N#Cc1c(N)sc2c(F)ccc(-c3c(Cl)cc4c(N5CCCCC6(CN(C(=O)[C@H]7CCOC7)C6)C5)nc(OC[C@@]56CCCN5C[C@H](F)C6)nc4c3F)c12` [compound 319, 2-amino-4-(6-chloro-8-fluoro-2-(((2R,7aS)-2-fluorotetrahydro-1H-pyrrolizin-7a(5H)-yl)methoxy)-4-(2-((S)-tetrahydrofuran-3-carbonyl)-2,6-diazaspiro[3.6]decan-6-yl)quinazolin-7-yl)-7-fluorobenzo[b]thiophene-3-carbonitrile], the pIC50 in experiment [1] and in experiment [2] was greater than 5.30 each time.
Turning to `N#Cc1c(N)sc2c(F)ccc(-c3c(Cl)cc4c(N5CCCCC6(CN(C(=O)CC7CCC7)C6)C5)nc(OC[C@@]56CCCN5C[C@H](F)C6)nc4c3F)c12` [compound 320, 2-amino-4-(6-chloro-4-(2-(2-cyclobutylacetyl)-2,6-diazaspiro[3.6]decan-6-yl)-8-fluoro-2-(((2R,7aS)-2-fluorotetrahydro-1H-pyrrolizin-7a(5H)-yl)methoxy)quinazolin-7-yl)-7-fluorobenzo[b] thiophene-3-carbonitrile], the pIC50 in experiment [1] and in experiment [2] was greater than 5.30 each time.
For the molecule `C[C@@H]1CN(C(=O)N2CC3(CCCCN(c4nc(OC[C@@]56CCCN5C[C@H](F)C6)nc5c(F)c(-c6ccc(F)c7sc(N)c(C#N)c67)c(Cl)cc45)C3)C2)CCO1` [compound 322, 2-amino-4-(6-chloro-8-fluoro-2-(((2R,7aS)-2-fluorotetrahydro-1H-pyrrolizin-7a(5H)-yl)methoxy)-4-(2-((R)-2-methylmorpholine-4-carbonyl)-2,6-diazaspiro[3.6]decan-6-yl)quinazolin-7-yl)-7-fluorobenzo[b]thiophene-3-carbonitrile], the negative logarithm of the IC50 (pIC50) in experiment [1] and in experiment [2] was greater than 5.30 each time.
As for `N#Cc1c(N)sc2c(F)ccc(-c3c(Cl)cc4c(N5CCCCC6(CN(C(=O)c7ccnn7C(F)(F)F)C6)C5)nc(OC[C@@]56CCCN5C[C@H](F)C6)nc4c3F)c12` [compound 323, 2-amino-4-(6-chloro-8-fluoro-2-(((2R,7aS)-2-fluorotetrahydro-1H-pyrrolizin-7a(5H)-yl)methoxy)-4-(2-(1-(trifluoromethyl)-1H-pyrazole-5-carbonyl)-2,6-diazaspiro[3.6]decan-6-yl)quinazolin-7-yl)-7-fluorobenzo[b]thiophene-3-carbonitrile], the pIC50 in experiment [1] and in experiment [2] was greater than 5.30 throughout.
For `N#CCC1CCN(c2nc(OC[C@@]34CCCN3C[C@H](F)C4)nc3c(F)c(-c4ccc(F)c5sc(N)c(C#N)c45)c(Cl)cc23)CC2(C1)CN(C(=O)C1CC1(F)F)C2` (stereo partly drawn) [compound 324, 2-amino-4-(6-chloro-4-(9-(cyanomethyl)-2-(2,2-difluorocyclopropane-1-carbonyl)-2,6-diazaspiro[3.6]decan-6-yl)-8-fluoro-2-(((2R,7aS)-2-fluorotetrahydro-1H-pyrrolizin-7a(5H)-yl)methoxy)quinazolin-7-yl)-7-fluorobenzo[b]thiophene-3-carbonitrile], the pIC50 in experiment [1] and in experiment [2] was greater than 5.30 throughout.
On to `N#Cc1c(N)sc2c(F)ccc(-c3c(Cl)cc4c(N5CCCCC6(CN(C(=O)N7CCOCC7)C6)C5)nc(OC[C@@]56CCCN5C[C@H](F)C6)nc4c3F)c12` [compound 325, 2-amino-4-(6-chloro-8-fluoro-2-(((2R,7aS)-2-fluorotetrahydro-1H-pyrrolizin-7a(5H)-yl)methoxy)-4-(2-(morpholine-4-carbonyl)-2,6-diazaspiro[3.6]decan-6-yl)quinazolin-7-yl)-7-fluorobenzo[b]thiophene-3-carbonitrile], for which the pIC50 in experiment [1] and in experiment [2] was greater than 5.30 each time.
With `N#Cc1c(N)sc2c(F)ccc(-c3c(Cl)cc4c(N5CCCCC6(CN(C(=O)CN7CCOCC7=O)C6)C5)nc(OC[C@@]56CCCN5C[C@H](F)C6)nc4c3F)c12` [compound 326, 2-amino-4-(6-chloro-8-fluoro-2-(((2R,7aS)-2-fluorotetrahydro-1H-pyrrolizin-7a(5H)-yl)methoxy)-4-(2-(2-(3-oxomorpholino)acetyl)-2,6-diazaspiro[3.6]decan-6-yl)quinazolin-7-yl)-7-fluorobenzo[b]thiophene-3-carbonitrile], the pIC50 in experiment [1] and in experiment [2] was greater than 5.30 each time.
For `N#Cc1c(N)sc2c(F)ccc(-c3c(Cl)cc4c(N5CCCCC6(CN(C(=O)C7(O)COC7)C6)C5)nc(OC[C@@]56CCCN5C[C@H](F)C6)nc4c3F)c12` [compound 327, 2-amino-4-(6-chloro-8-fluoro-2-(((2R,7aS)-2-fluorotetrahydro-1H-pyrrolizin-7a(5H)-yl)methoxy)-4-(2-(3-hydroxyoxetane-3-carbonyl)-2,6-diazaspiro[3.6]decan-6-yl)quinazolin-7-yl)-7-fluorobenzo[b]thiophene-3-carbonitrile], the pIC50 in experiment [1] and in experiment [2] was greater than 5.30 in each case.
In the case of `CC1(NC(=O)N2CC3(CCCCN(c4nc(OC[C@@]56CCCN5C[C@H](F)C6)nc5c(F)c(-c6ccc(F)c7sc(N)c(C#N)c67)c(Cl)cc45)C3)C2)COC1` [compound 328, 6-(7-(2-amino-3-cyano-7-fluorobenzo[b]thiophen-4-yl)-6-chloro-8-fluoro-2-(((2R,7aS)-2-fluorotetrahydro-1H-pyrrolizin-7a(5H)-yl)methoxy)quinazolin-4-yl)-N-(3-methyloxetan-3-yl)-2,6-diazaspiro[3.6]decane-2-carboxamide], the pIC50 in experiment [1] and in experiment [2] was greater than 5.30 throughout.
`CC(O)(C(=O)N1CC2(CCCCN(c3nc(OC[C@@]45CCCN4C[C@H](F)C5)nc4c(F)c(-c5ccc(F)c6sc(N)c(C#N)c56)c(Cl)cc34)C2)C1)C1CC1` (stereo partly drawn) [compound 329, 2-amino-4-(6-chloro-4-(2-(2-cyclopropyl-2-hydroxypropanoyl)-2,6-diazaspiro[3.6]decan-6-yl)-8-fluoro-2-(((2R,7aS)-2-fluorotetrahydro-1H-pyrrolizin-7a(5H)-yl)methoxy)quinazolin-7-yl)-7-fluorobenzo[b]thiophene-3-carbonitrile]: the negative-log IC50 (pIC50) in experiment [1] and in experiment [2] was greater than 5.30 in each case.
`N#Cc1c(N)sc2c(F)ccc(-c3c(Cl)cc4c(N5CC(F)(F)C6(CN(C(=O)C(F)F)C6)C5)nc(OC[C@@]56CCCN5C[C@H](F)C6)nc4c3F)c12` [compound 330, 2-amino-4-(6-chloro-4-(2-(2,2-difluoroacetyl)-8,8-difluoro-2,6-diazaspiro [3.4]octan-6-yl)-8-fluoro-2-(((2R,7aS)-2-fluorotetrahydro-1H-pyrrolizin-7a(5H)-yl)methoxy)quinazolin-7-yl)-7-fluorobenzo[b]thiophene-3-carbonitrile]: the pIC50 in experiment [1] and in experiment [2] was greater than 5.30 each time.
For `N#Cc1c(N)sc2c(F)ccc(-c3c(Cl)cc4c(N5CCC(CO)CC6(CN(C(=O)[C@@H]7CC7(F)F)C6)C5)nc(OC[C@@]56CCCN5C[C@H](F)C6)nc4c3F)c12` (stereo partly drawn) [compound 332, 2-amino-4-(6-chloro-4-(2-((S)-2,2-difluorocyclopropane-1-carbonyl)-9-(hydroxymethyl)-2,6-diazaspiro[3.6]decan-6-yl)-8-fluoro-2-(((2R,7aS)-2-fluorotetrahydro-1H-pyrrolizin-7a(5H)-yl)methoxy)quinazolin-7-yl)-7-fluorobenzo[b]thiophene-3-carbonitrile], the pIC50 in experiment [1] and in experiment [2] was greater than 5.30 each time.
On to `N#Cc1c(N)sc2c(F)ccc(-c3c(Cl)cc4c(N5CCCCC6(CN(C(=O)C78COCC7C8)C6)C5)nc(OC[C@@]56CCCN5C[C@H](F)C6)nc4c3F)c12` (stereo partly drawn) [compound 333, 4-(4-(2-(3-oxabicyclo[3.1.0]hexane-1-carbonyl)-2,6-diazaspiro [3.6]decan-6-yl)-6-chloro-8-fluoro-2-(((2R,7aS)-2-fluorotetrahydro-1H-pyrrolizin-7a(5H)-yl)methoxy)quinazolin-7-yl)-2-amino-7-fluorobenzo[b]thiophene-3-carbonitrile], for which the pIC50 in experiment [1] and in experiment [2] was greater than 5.30 throughout.
For `C#Cc1c(F)ccc2cc(O)cc(-c3ncc4c(N5CCCCC6(CN(C(=O)[C@@H]7CC7(F)F)C6)C5)nc(OC[C@@]56CCCN5C[C@H](F)C6)nc4c3F)c12` [compound 334, ((S)-2,2-difluorocyclopropyl) (6-(7-(8-ethynyl-7-fluoro-3-hydroxynaphthalen-1-yl)-8-fluoro-2-(((2R,7aS)-2-fluorotetrahydro-1H-pyrrolizin-7a(5H)-yl)methoxy)pyrido[4,3-d]pyrimidin-4-yl)-2,6-diazaspiro[3.6]decan-2-yl)methanone], the pIC50 in experiment [1] and in experiment [2] was greater than 5.30 each time.
For `N#Cc1c(N)sc2c(F)ccc(-c3c(Cl)cc4c(N5CCCCC6(CN(C(=O)CN7CCOCC7)C6)C5)nc(OC[C@@]56CCCN5C[C@H](F)C6)nc4c3F)c12` [compound 335, 2-amino-4-(6-chloro-8-fluoro-2-(((2R,7aS)-2-fluorotetrahydro-1H-pyrrolizin-7a(5H)-yl)methoxy)-4-(2-(2-morpholinoacetyl)-2,6-diazaspiro[3.6]decan-6-yl)quinazolin-7-yl)-7-fluorobenzo[b]thiophene-3-carbonitrile], the pIC50 in experiment [1] and in experiment [2] was greater than 5.30 in each case.
Consider `N#Cc1c(N)sc2c(F)ccc(-c3c(Cl)cc4c(N5CCCCC6(CN(C(=O)C7CC7(F)Cl)C6)C5)nc(OC[C@@]56CCCN5C[C@H](F)C6)nc4c3F)c12` (stereo partly drawn) [compound 336, 2-amino-4-(6-chloro-4-(2-(2-chloro-2-fluorocyclopropane-1-carbonyl)-2,6-diazaspiro[3.6]decan-6-yl)-8-fluoro-2-(((2R,7aS)-2-fluorotetrahydro-1H-pyrrolizin-7a(5H)-yl)methoxy)quinazolin-7-yl)-7-fluorobenzo[b]thiophene-3-carbonitrile], for which the negative-log IC50 (pIC50) in experiment [1] and in experiment [2] was greater than 5.30 in each case.
